Assay results: US5200338A, “Bacterial extracellular lignin peroxidase” (Idaho Research Foundation, Incorporation, priority 1988, dated 1993)

Key:
Peroxidase P3 [1] = settings: inhibitor at final concentration lmM
Description: Enzyme activity was also assayed using L-3,4-dihydroxyphenylalanine (L-DOPA; Sigma) as substrate.

Peroxidase P3 [2] = test system: Peroxidase P3
Description: Peroxidase activity was routinely assayed with 2,4-dichlorophenol (2,4-DCP) (Sigma) as substrate. A final volume of 1.0 ml of reaction mixture contained 100 mM sodium succinate buffer (pH 5.5), 82 mM 4-aminoantipyrine(Sigma), 1.0 mM 2,4-dichlorophenol, 4.0 mM hydrogen peroxide and 100 μl of enzyme preparation. The reaction was initiated by the addition of hydrogen peroxide and the increase in A510 was monitored for one minute at 37° C. One unit of enzyme was expressed as the amount of enzyme required for an increase of 1.0 absorbance unit per min.

[3] = test system: partially purified peroxidase; experiment: Oxidation of lignin substructure model compounds by partially purified peroxidase; type: biochemical, Streptomyces viridosporus T7A; settings: 0.02% (wt/vol) model compound, hydrogen peroxide, pH 5.5, 37° C., 18 hours
Description: The model compounds were added to reaction mixtures at a final concentration of 0.02% (wt/vol). Reactions were carried out in a total volume of 3.0 ml, containing 0.1 mM hydrogen peroxide or a peroxide generating system consisting of 0.02 units/ml of glucose oxidase (Sigma) and 3 mM glucose 0.1M sodium tartrate buffer (pH 5.5) and 300 μl of enzyme preparation. Control reactions were performed with boiled enzyme preparation. Some reaction mixtures were flushed with oxygen and all were incubated at 37° C. for 18 hours on a shaker in slanting tubes. The reaction mixtures were then acidified to pH 2-3 with 12M HCl and extracted once with ether and once with ethyl acetate. […]
HPLC was performed on a Hewlett-Packard 1090A high pressure liquid chromatograph employing a HP-1040A diode array detector. During each run, chromatograms for 258, 280, and 310 nm were recorded and the ultraviolet (UV) absorbance spectrum (250-350 nm) of each peak was recorded at its front side, apex, and trailing side. […]
Only veratraldehyde, anisaldehyde and vanillin were detected by HPLC, GC, and GC/MS. Guaiacol, formed in trace amounds, was detected by HPLC, GC, and GC/MS. Small amounts of products (IV) and (V) were detected only by MS fragmentation. […]

Q: What does the source list for `[N-]=[N+]=[N-]` [sodium azide]?
A: % inhibition of peroxidase P3 activity, substrate L-DOPA (Peroxidase P3 [1]): 41%; Specific activity, substrate L-DOPA, with inhibitor (Peroxidase P3 [1]; partially purified P3): 0.18 Units/mg protein; Inhibition of the enzyme (2,4-DCP and L-DOPA oxidizing activities), in words (Peroxidase P3 [2]; 1 mM concentration): inhibited; % inhibition of peroxidase P3 activity, substrate 2,4,-DCP (Peroxidase P3 [2]; inhibitor at final concentration lmM): 83%; Specific activity, substrate 2,4,-DCP, with inhibitor (Peroxidase P3 [2]; inhibitor at final concentration lmM, partially purified P3): 0.18 Units/mg protein

Q: With `COc1ccc(C(=O)Cc2ccccc2)cc1` [III, 1-(4-methoxyphenyl)-2-(phenyl)ethan-1-one] as the compound, how does the “Oxidation of the model compound by the peroxidase (bond cleaved)” value [3] read?
A: cleaved between the Cαand Cβcarbons

Q: Which “Oxidation of the model compound by the peroxidase (bond cleaved)” value [3] does the source give for `COc1ccc(C(O)C(CO)Oc2ccccc2OC)cc1OC` (stereo not shown) [I, 1-(3,4-Dimethoxyphenyl)-2-(2-methoxyphenoxy)propane-1,3-diol] here?
A: cleaved at the Cα -Cβ bond
